Experiments:
Assay type in all cases: in vivo
[1] = system: chickweed (Stellaria media); assay: Test C postemergence; settings: for Plant response rating, Chickweed: scale 0 to 100
In short: (§1)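 Applications: preemergence onto seeded soil and postemergence onto 1- to 4-leaf seedlings, compound carried in non-phytotoxic solvent plus surfactant. Kept in greenhouse 12 to 14 days. Scored visually relative to untreated controls, 0 (no effect) to 100 (complete control).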

[2] = system: goosegrass (Eleusine indica); assay: Test C pre/postemergence
In short: as §1

[3] = system: giant foxtail (Setaria faberii); assay: Test C pre/postemergence
In short: as §1

[4] = system: velvetleaf (Abutilon theophrasti); assay: Test C pre/postemergence
In short: as §1

[5] = system: lambsquarters (Chenopodium album); assay: Test C pre/postemergence
In short: as §1

[6] = 62 g ai/ha, scale 0 to 100 (0 no effect, 100 complete control)
[7] = 125 g ai/ha, scale 0 to 100 (0 no effect, 100 complete control)
[8] = Postemergence, 62 g ai/ha, scale 0 to 100 (0 no effect, 100 complete control)
[9] = Postemergence, 125 g ai/ha, scale 0 to 100 (0 no effect, 100 complete control)
[10] = Preemergence, 16 g ai/ha, scale 0 to 100, 0 no effect, 100 complete control
[11] = Preemergence, 31 g ai/ha, scale 0 to 100, 0 no effect, 100 complete control
[12] = Preemergence, 62 g ai/ha, scale 0 to 100, 0 no effect, 100 complete control
[13] = Preemergence, 125 g ai/ha, scale 0 to 100
[14] = Postemergence, 250 g ai/ha, scale 0 to 100
[15] = Postemergence, 500 g ai/ha, scale 0 to 100
[16] = Preemergence, 250 g ai/ha, scale 0 to 100
[17] = Preemergence, 500 g ai/ha, scale 0 to 100

## CCOC(=O)C(OC(C)=O)c1nc(C2CC2)nc(N)c1Br (stereo not drawn) [Compound 47]
[1]; 16 g ai/ha
  Plant response rating (scale of 0 to 100), Chickweed: 0
[1]; 31 g ai/ha
  Plant response rating (scale of 0 to 100), Chickweed: 0
[1]; [6]
  Chickweed plant response rating: 0
[1]; [7]
  Chickweed plant response rating: 0
[2]; Postemergence, 16 g ai/ha
  Plant response rating (scale of 0 to 100), Goosegrass: 0
[2]; Postemergence, 31 g ai/ha
  Plant response rating (scale of 0 to 100), Goosegrass: 0
[2]; [8]
  Goosegrass plant response rating: 0
[2]; [9]
  Goosegrass plant response rating: 0
[2]; [10]
  Plant response rating, Goosegrass: 0
[2]; [11]
  Plant response rating, Goosegrass: 45
[2]; [12]
  Plant response rating, Goosegrass: 85
[2]; [13]
  Plant response rating, Goosegrass: 90
[3]; Postemergence, 16 g ai/ha
  Plant response rating (scale of 0 to 100), Foxtail, Giant: 0
[3]; Postemergence, 31 g ai/ha
  Plant response rating (scale of 0 to 100), Foxtail, Giant: 0
[3]; [8]
  Foxtail, Giant plant response rating: 0
[3]; [9]
  Foxtail, Giant plant response rating: 0
[3]; [10]
  Plant response rating, Foxtail, Giant: 0
[3]; [11]
  Plant response rating, Foxtail, Giant: 0
[3]; [12]
  Plant response rating, Foxtail, Giant: 0
[3]; [13]
  Plant response rating, Foxtail, Giant: 20
[4]; Postemergence, 16 g ai/ha
  Plant response rating (scale of 0 to 100), Velvetleaf: 0
[4]; Postemergence, 31 g ai/ha
  Plant response rating (scale of 0 to 100), Velvetleaf: 0
[4]; [8]
  Velvetleaf plant response rating: 0
[4]; [9]
  Velvetleaf plant response rating: 0
[4]; [10]
  Plant response rating, Velvetleaf: 0
[4]; [11]
  Plant response rating, Velvetleaf: 20
[4]; [12]
  Plant response rating, Velvetleaf: 20
[4]; [13]
  Plant response rating, Velvetleaf: 50
[5]; Postemergence, 16 g ai/ha
  Plant response rating (scale of 0 to 100), Lambsquarters: 0
[5]; Postemergence, 31 g ai/ha
  Plant response rating (scale of 0 to 100), Lambsquarters: 45
[5]; [8]
  Lambsquarters plant response rating: 70
[5]; [9]
  Lambsquarters plant response rating: 80
[5]; [10]
  Plant response rating, Lambsquarters: 0
[5]; [12]
  Plant response rating, Lambsquarters: 85
[5]; [13]
  Plant response rating, Lambsquarters: 95

## CCOC(=O)c1nc(C2CC2)nc(NN)c1Br [Compound 42]
[1]; Stellaria media, post-emergence, 31 g ai/ha, read-out: Plant response rating (scale of 0 to 100), Chickweed
  pest or weed control at 31 g/ha: 0%
[1]; Stellaria media, post-emergence, 62 g ai/ha, scale 0 to 100 (0 no effect, 100 complete control), read-out: Chickweed plant response rating
  pest or weed control at 62 g/ha: 0%
[1]; Stellaria media, post-emergence, 125 g ai/ha, scale 0 to 100 (0 no effect, 100 complete control), read-out: Chickweed plant response rating
  pest or weed control at 125 g/ha: 0%
[1]; Stellaria media, post-emergence, 250 g ai/ha, scale 0 to 100, read-out: Plant response rating, Chickweed
  pest or weed control at 250 g/ha: 10%
[2]; Eleusine indica, post-emergence, Postemergence, 31 g ai/ha, read-out: Plant response rating (scale of 0 to 100), Goosegrass
  pest or weed control at 31 g/ha: 0%
[2]; Eleusine indica, post-emergence, Postemergence, 62 g ai/ha, scale 0 to 100 (0 no effect, 100 complete control), read-out: Goosegrass plant response rating
  pest or weed control at 62 g/ha: 0%
[2]; Eleusine indica, post-emergence, Postemergence, 125 g ai/ha, scale 0 to 100 (0 no effect, 100 complete control), read-out: Goosegrass plant response rating
  pest or weed control at 125 g/ha: 0%
[2]; Eleusine indica, post-emergence, Postemergence, 250 g ai/ha, scale 0 to 100, read-out: Plant response rating, Goosegrass
  pest or weed control at 250 g/ha: 0%
[3]; Setaria faberi, post-emergence, Postemergence, 125 g ai/ha, scale 0 to 100 (0 no effect, 100 complete control), read-out: Foxtail, Giant plant response rating
  pest or weed control at 125 g/ha: 0%
[3]; Setaria faberi, post-emergence, Postemergence, 31 g ai/ha, read-out: Plant response rating (scale of 0 to 100), Foxtail, Giant
  pest or weed control at 31 g/ha: 0%
[3]; Setaria faberi, post-emergence, Postemergence, 62 g ai/ha, scale 0 to 100 (0 no effect, 100 complete control), read-out: Foxtail, Giant plant response rating
  pest or weed control at 62 g/ha: 0%
[3]; Setaria faberi, post-emergence, Postemergence, 250 g ai/ha, scale 0 to 100, read-out: Plant response rating, Foxtail, Giant
  pest or weed control at 250 g/ha: 0%
[4]; Abutilon theophrasti, post-emergence, Postemergence, 31 g ai/ha, read-out: Plant response rating (scale of 0 to 100), Velvetleaf
  pest or weed control at 31 g/ha: 0%
[4]; Abutilon theophrasti, post-emergence, Postemergence, 62 g ai/ha, scale 0 to 100 (0 no effect, 100 complete control), read-out: Velvetleaf plant response rating
  pest or weed control at 62 g/ha: 0%
[4]; Abutilon theophrasti, post-emergence, Postemergence, 125 g ai/ha, scale 0 to 100 (0 no effect, 100 complete control), read-out: Velvetleaf plant response rating
  pest or weed control at 125 g/ha: 0%
[4]; Abutilon theophrasti, post-emergence, Postemergence, 250 g ai/ha, scale 0 to 100, read-out: Plant response rating, Velvetleaf
  pest or weed control at 250 g/ha: 20%
[5]; Chenopodium album, post-emergence, Postemergence, 31 g ai/ha, read-out: Plant response rating (scale of 0 to 100), Lambsquarters
  pest or weed control at 31 g/ha: 10%
[5]; Chenopodium album, post-emergence, Postemergence, 62 g ai/ha, scale 0 to 100 (0 no effect, 100 complete control), read-out: Lambsquarters plant response rating
  pest or weed control at 62 g/ha: 20%
[5]; Chenopodium album, post-emergence, Postemergence, 125 g ai/ha, scale 0 to 100 (0 no effect, 100 complete control), read-out: Lambsquarters plant response rating
  pest or weed control at 125 g/ha: 20%
[5]; Chenopodium album, post-emergence, Postemergence, 250 g ai/ha, scale 0 to 100, read-out: Plant response rating, Lambsquarters
  pest or weed control at 250 g/ha: 25%

## CCCOC(=O)c1nc(C2CC2)nc(N)c1Br [Compound 15]
[1]; [6]
  Chickweed plant response rating: 20
[1]; 125 g ai/ha
  Plant response rating, Chickweed: 50
[1]; 250 g ai/ha
  Plant response rating, Chickweed: 65
[1]; 500 g ai/ha
  Plant response rating, Chickweed: 85
[2]; [8]
  Goosegrass plant response rating: 0
[2]; [9]
  Goosegrass plant response rating: 0
[2]; [14]
  Plant response rating, Goosegrass: 40
[2]; [15]
  Plant response rating, Goosegrass: 55
[2]; [12]
  Plant response rating, Goosegrass: 0
[2]; [13]
  Plant response rating, Goosegrass: 0
[2]; [16]
  Plant response rating, Goosegrass: 0
[2]; [17]
  Plant response rating, Goosegrass: 0
[3]; [8]
  Foxtail, Giant plant response rating: 45
[3]; [9]
  Foxtail, Giant plant response rating: 60
[3]; [14]
  Plant response rating, Foxtail, Giant: 65
[3]; [15]
  Plant response rating, Foxtail, Giant: 70
[3]; [12]
  Plant response rating, Foxtail, Giant: 0
[3]; [13]
  Plant response rating, Foxtail, Giant: 0
[3]; [16]
  Plant response rating, Foxtail, Giant: 65
[3]; [17]
  Plant response rating, Foxtail, Giant: 80
[4]; [8]
  Velvetleaf plant response rating: 65
[4]; [9]
  Velvetleaf plant response rating: 70
[4]; [14]
  Plant response rating, Velvetleaf: 85
[4]; [15]
  Plant response rating, Velvetleaf: 90
[4]; [12]
  Plant response rating, Velvetleaf: 80
[4]; [13]
  Plant response rating, Velvetleaf: 95
[4]; [16]
  Plant response rating, Velvetleaf: 100
[4]; [17]
  Plant response rating, Velvetleaf: 100
[5]; [8]
  Lambsquarters plant response rating: 100
[5]; [9]
  Lambsquarters plant response rating: 100
[5]; [14]
  Plant response rating, Lambsquarters: 100
[5]; [15]
  Plant response rating, Lambsquarters: 100
[5]; [12]
  Plant response rating, Lambsquarters: 95
[5]; [13]
  Plant response rating, Lambsquarters: 100
[5]; [16]
  Plant response rating, Lambsquarters: 100
[5]; [17]
  Plant response rating, Lambsquarters: 100

## Nc1nc(C2CC2)nc(C=NO)c1Br [Compound 27]
[1]; [6]
  Chickweed plant response rating: 0
[1]; [7]
  Chickweed plant response rating: 0
[1]; 250 g ai/ha
  Plant response rating, Chickweed: 0
[1]; 500 g ai/ha
  Plant response rating, Chickweed: 0
[2]; [8]
  Goosegrass plant response rating: 0
[2]; [9]
  Goosegrass plant response rating: 0
[2]; [14]
  Plant response rating, Goosegrass: 0
[2]; [15]
  Plant response rating, Goosegrass: 0
[2]; [12]
  Plant response rating, Goosegrass: 0
[2]; [13]
  Plant response rating, Goosegrass: 0
[2]; [16]
  Plant response rating, Goosegrass: 0
[2]; [17]
  Plant response rating, Goosegrass: 20
[3]; [8]
  Foxtail, Giant plant response rating: 0
[3]; [9]
  Foxtail, Giant plant response rating: 0
[3]; [14]
  Plant response rating, Foxtail, Giant: 0
[3]; [15]
  Plant response rating, Foxtail, Giant: 0
[3]; [12]
  Plant response rating, Foxtail, Giant: 0
[3]; [13]
  Plant response rating, Foxtail, Giant: 0
[3]; [16]
  Plant response rating, Foxtail, Giant: 0
[3]; [17]
  Plant response rating, Foxtail, Giant: 20
[4]; [8]
  Velvetleaf plant response rating: 0
[4]; [9]
  Velvetleaf plant response rating: 0
[4]; [14]
  Plant response rating, Velvetleaf: 0
[4]; [15]
  Plant response rating, Velvetleaf: 30
[4]; [12]
  Plant response rating, Velvetleaf: 0
[4]; [13]
  Plant response rating, Velvetleaf: 0
[4]; [16]
  Plant response rating, Velvetleaf: 50
[4]; [17]
  Plant response rating, Velvetleaf: 70
[5]; [8]
  Lambsquarters plant response rating: 20
[5]; [9]
  Lambsquarters plant response rating: 20
[5]; [14]
  Plant response rating, Lambsquarters: 25
[5]; [15]
  Plant response rating, Lambsquarters: 50
[5]; [13]
  Plant response rating, Lambsquarters: 40
[5]; [16]
  Plant response rating, Lambsquarters: 90
[5]; [17]
  Plant response rating, Lambsquarters: 100
